Measured values: ChEMBL document CHEMBL4334471, “Discovery of 1,8-disubstituted-[1,2,3]triazolo[4,5-c]quinoline derivatives as a new class of Hippo signaling pathway inhibitors” (Bioorg Med Chem Lett, 2019)

Legend:
[1] = tested on: Tyrosine-protein kinase ABL1 (Homo sapiens), P00519 [Y253F]; assay: Inhibition of human ABL1 Y253F mutant (27 to end residues) assessed as residual activity at 10 uM using EAIYAAPFAKKK as substrate incubated for 40 mins in presence of [gamma-33ATP] by scintillation counting based radiometry assay relative to control
[2] = biological target: 5'-AMP-activated protein kinase catalytic subunit alpha-1 (Homo sapiens) (UniProt Q13131); assay: Inhibition of recombinant full length human AMPKalpha1 assessed as residual activity at 10 uM using AMARAASAAALAR as substrate incubated for 40 mins in presence of [gamma-33ATP] by scintillation counting based radiometry assay relative to control
5'-AMP-activated protein kinase catalytic subunit alpha-1 (Homo sapiens), sequence (Q13131 whole entry, looked up): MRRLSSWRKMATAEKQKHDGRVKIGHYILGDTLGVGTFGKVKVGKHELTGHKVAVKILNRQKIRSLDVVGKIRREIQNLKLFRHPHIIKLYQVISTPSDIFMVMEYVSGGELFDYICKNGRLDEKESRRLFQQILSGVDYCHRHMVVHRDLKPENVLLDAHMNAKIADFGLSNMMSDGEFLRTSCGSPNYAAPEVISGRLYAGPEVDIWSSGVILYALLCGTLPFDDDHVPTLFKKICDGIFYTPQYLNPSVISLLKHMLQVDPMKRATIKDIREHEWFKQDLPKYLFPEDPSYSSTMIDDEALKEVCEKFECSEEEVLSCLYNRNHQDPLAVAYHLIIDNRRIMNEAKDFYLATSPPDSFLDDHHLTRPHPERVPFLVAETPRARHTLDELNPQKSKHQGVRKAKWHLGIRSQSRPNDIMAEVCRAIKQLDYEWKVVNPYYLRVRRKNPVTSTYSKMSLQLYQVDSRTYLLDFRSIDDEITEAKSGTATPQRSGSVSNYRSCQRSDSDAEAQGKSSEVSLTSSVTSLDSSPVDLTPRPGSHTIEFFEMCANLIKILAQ

[3] = tested on: Calcium/calmodulin-dependent protein kinase kinase 2 (Homo sapiens), Q96RR4 [T85S]; assay: Inhibition of recombinant full length human CaMKK2 T85S mutant assessed as residual activity at 10 uM using […] incubated for 40 mins in presence of [gamma-33ATP] by scintillation counting based radiometry assay relative to control
[4] = biological target: Cyclin-dependent kinase 2/cyclin E1 (Homo sapiens) (UniProt P24864+P24941); assay: Inhibition of recombinant full length human CDK2/CyclinE assessed as residual activity at 10 uM using Histone H1 as substrate incubated for 40 mins in presence of [gamma-33ATP] by scintillation counting based radiometry assay relative to control; assay type: protein-complex assay
[5] = biological target: Transient receptor potential cation channel subfamily M member 7 (Homo sapiens) (UniProt Q96QT4); assay: Inhibition of recombinant human CHAK1 (1180 to end residues) assessed as residual activity at 10 uM using myelin basic protein as substrate incubated for 40 mins in presence of [gamma-33ATP] by scintillation counting based radiometry assay relative to control
[6] = tested on: Mast/stem cell growth factor receptor Kit (Homo sapiens), P10721 [V654A]; assay: Inhibition of recombinant human C-Kit V654A mutant (544 to end residues) assessed as residual activity at 10 uM poly(Glu, Tyr) 4:1 as substrate incubated 40 mins in presence of [gamma-33ATP] by scintillation counting based radiometry assay relative to control
[7] = biological target: Ephrin type-B receptor 4 (Homo sapiens) (UniProt P54760); assay: Inhibition of recombinant human EphB4 (561 to end residues) assessed as residual activity at 10 uM using poly(Glu, Tyr) 4:1 as substrate at 40 mins in presence of [gamma-33ATP] by scintillation counting based radiometry assay relative to control
[8] = biological target: Fibroblast growth factor receptor 4 (Homo sapiens) (UniProt P22455); assay: Inhibition of recombinant human FGFR4 (442 to 755 residues) assessed as residual activity at 10 uM using poly(Glu, Tyr) 4:1 as substrate at 40 mins in presence of [gamma-33ATP] by scintillation counting based radiometry assay relative to control
Fibroblast growth factor receptor 4 (Homo sapiens), sequence (P22455 22-802 limits assumed): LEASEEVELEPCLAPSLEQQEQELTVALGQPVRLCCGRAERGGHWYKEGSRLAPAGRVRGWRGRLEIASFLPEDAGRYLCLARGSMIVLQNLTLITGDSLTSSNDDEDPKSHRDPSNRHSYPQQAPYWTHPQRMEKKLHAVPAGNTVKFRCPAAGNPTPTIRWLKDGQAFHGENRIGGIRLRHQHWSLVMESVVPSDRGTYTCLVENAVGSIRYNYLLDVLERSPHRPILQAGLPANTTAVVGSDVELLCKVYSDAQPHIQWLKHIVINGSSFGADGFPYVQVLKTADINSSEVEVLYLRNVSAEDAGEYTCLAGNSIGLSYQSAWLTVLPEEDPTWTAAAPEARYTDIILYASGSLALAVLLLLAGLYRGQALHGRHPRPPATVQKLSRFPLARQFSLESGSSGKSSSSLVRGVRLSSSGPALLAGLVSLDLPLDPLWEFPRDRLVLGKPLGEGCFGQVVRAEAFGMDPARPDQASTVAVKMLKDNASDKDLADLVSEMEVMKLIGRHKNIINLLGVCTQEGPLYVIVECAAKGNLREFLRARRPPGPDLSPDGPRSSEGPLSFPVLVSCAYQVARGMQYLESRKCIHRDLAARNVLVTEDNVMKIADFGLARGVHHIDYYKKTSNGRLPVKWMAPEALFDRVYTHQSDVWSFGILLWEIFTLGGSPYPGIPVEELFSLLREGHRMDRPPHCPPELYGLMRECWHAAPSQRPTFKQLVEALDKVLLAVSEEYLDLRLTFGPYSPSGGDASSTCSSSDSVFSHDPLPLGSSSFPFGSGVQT

[9] = biological target: Serine/threonine-protein kinase haspin (Homo sapiens) (UniProt Q8TF76); assay: Inhibition of human Haspin (471 to end residues ) assessed as residual activity at 10 uM using RARTLSFAEPG as substrate after 40 mins by [gamma-33ATP] radiometric assay relative to control
Serine/threonine-protein kinase haspin (Homo sapiens), sequence (Q8TF76 whole entry, the tested form may be a part): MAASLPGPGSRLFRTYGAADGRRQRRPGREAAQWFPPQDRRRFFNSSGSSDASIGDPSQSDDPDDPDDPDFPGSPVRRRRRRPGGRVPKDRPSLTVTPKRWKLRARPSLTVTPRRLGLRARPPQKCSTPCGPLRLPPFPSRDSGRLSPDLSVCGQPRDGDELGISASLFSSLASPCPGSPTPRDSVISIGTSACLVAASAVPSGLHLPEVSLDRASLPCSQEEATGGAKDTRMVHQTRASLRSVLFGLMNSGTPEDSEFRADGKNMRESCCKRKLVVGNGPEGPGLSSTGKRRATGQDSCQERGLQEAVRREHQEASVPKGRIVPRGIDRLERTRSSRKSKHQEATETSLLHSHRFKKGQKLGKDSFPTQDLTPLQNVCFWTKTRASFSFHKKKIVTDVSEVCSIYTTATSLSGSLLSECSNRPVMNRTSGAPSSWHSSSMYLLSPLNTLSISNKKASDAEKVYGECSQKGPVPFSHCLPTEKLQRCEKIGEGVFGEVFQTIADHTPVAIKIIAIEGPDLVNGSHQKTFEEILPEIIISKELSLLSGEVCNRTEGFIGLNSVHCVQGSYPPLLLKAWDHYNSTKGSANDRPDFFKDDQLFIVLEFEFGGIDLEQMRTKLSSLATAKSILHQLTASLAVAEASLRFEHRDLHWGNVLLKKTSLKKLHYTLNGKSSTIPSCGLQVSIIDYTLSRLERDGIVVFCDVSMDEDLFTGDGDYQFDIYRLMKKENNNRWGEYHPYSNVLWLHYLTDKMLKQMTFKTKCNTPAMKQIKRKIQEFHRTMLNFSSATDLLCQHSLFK

[10] = biological target: Homeodomain-interacting protein kinase 2 (Homo sapiens) (UniProt Q9H2X6); assay: Inhibition of human HIPK2 (165 to 564 residues) assessed as residual activity at 10 uM using myelin basic protein as substrate after 40 mins by [gamma-33ATP] radiometric assay relative to control
[11] = biological target: Inhibitor of nuclear factor kappa-B kinase subunit epsilon (Homo sapiens) (UniProt Q14164); assay: Inhibition of full length human IKKepsilon assessed as residual activity at 10 uM using peptide as substrate after 40 mins by [gamma-33ATP] radiometric assay relative to control
Inhibitor of nuclear factor kappa-B kinase subunit epsilon (Homo sapiens), sequence (Q14164 whole entry, the tested form may be a part): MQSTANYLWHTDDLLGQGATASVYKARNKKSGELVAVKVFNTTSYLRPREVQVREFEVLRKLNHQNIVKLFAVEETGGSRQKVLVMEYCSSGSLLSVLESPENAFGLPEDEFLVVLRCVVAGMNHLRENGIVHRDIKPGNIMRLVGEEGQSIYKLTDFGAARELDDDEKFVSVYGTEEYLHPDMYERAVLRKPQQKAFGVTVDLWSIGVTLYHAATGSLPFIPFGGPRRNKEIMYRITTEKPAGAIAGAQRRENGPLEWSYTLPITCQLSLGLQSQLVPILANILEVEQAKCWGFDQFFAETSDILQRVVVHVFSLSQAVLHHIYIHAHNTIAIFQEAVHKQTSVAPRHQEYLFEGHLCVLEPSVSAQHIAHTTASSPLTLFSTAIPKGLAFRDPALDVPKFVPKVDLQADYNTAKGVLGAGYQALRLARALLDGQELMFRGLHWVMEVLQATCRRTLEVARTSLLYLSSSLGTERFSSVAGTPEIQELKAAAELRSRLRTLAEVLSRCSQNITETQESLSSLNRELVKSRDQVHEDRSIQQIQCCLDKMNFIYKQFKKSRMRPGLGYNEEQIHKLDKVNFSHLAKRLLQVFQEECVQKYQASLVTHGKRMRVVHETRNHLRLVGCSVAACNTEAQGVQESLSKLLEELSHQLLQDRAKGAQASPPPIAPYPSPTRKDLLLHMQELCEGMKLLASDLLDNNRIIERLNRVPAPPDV

[12] = biological target: Tyrosine-protein kinase ITK/TSK (Homo sapiens) (UniProt Q08881); assay: Inhibition of human Itk (352 to 617 residues) assessed as residual activity at 10 uM using myelin basic protein as substrate after 40 mins by [gamma-33ATP] radiometric assay relative to control
[13] = biological target: Tyrosine-protein kinase Lck (Homo sapiens) (UniProt P06239); assay: Inhibition of recombinant full length human LCK activated assessed as residual activity at 10 uM using KVEKIGEGTYGVVYK as substrate after 40 mins in presence of [gamma-33ATP] by scintillation counting based radiometry assay relative to control
Tyrosine-protein kinase Lck (Homo sapiens), sequence (P06239 2-509 limits assumed): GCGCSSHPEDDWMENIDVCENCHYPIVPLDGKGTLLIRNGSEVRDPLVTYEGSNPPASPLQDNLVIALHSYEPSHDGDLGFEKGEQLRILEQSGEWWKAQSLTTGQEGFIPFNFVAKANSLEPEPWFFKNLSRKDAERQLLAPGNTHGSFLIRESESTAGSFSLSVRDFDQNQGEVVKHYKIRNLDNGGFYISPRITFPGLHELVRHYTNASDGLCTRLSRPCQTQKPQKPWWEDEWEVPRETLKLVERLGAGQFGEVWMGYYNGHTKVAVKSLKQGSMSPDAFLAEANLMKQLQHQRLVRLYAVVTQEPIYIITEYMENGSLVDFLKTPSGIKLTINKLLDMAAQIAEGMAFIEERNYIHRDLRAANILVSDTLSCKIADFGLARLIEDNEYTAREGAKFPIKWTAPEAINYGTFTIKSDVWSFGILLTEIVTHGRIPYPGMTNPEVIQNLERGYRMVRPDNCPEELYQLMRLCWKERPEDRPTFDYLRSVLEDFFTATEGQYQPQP

[14] = biological target: Leukocyte tyrosine kinase receptor (Homo sapiens) (UniProt P29376); assay: Inhibition of recombinant human LTK (450 to end residues) assessed as residual activity at 10 uM using GEEPLYWSFPAKK as substrate after 40 mins in presence of [gamma-33ATP] by scintillation counting based radiometry assay relative to control
Leukocyte tyrosine kinase receptor (Homo sapiens), sequence (P29376 whole entry): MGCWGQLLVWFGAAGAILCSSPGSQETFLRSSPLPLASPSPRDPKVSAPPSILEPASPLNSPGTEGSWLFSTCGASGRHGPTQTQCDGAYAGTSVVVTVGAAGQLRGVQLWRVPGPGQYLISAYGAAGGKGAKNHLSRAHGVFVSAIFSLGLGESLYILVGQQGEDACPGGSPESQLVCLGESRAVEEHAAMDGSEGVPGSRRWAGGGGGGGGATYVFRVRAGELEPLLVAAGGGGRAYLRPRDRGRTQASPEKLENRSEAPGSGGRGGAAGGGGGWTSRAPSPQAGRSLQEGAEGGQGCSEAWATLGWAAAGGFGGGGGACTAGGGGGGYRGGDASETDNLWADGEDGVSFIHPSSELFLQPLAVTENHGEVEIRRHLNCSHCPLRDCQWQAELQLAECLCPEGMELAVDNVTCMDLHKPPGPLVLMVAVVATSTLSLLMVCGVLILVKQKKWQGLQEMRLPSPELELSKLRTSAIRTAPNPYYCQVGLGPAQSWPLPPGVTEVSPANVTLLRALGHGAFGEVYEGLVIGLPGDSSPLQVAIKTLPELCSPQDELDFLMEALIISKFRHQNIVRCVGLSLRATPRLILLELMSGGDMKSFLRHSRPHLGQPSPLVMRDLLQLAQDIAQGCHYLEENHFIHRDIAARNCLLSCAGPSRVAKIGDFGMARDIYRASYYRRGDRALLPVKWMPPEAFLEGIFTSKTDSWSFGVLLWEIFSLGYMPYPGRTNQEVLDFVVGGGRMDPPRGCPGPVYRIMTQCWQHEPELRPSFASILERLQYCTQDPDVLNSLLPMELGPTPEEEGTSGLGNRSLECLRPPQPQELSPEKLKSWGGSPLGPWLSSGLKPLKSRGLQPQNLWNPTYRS

[15] = tested on: Hepatocyte growth factor receptor (Homo sapiens), P08581 [D1228H]; assay: Inhibition of recombinant human MET A1209G/V1290L/D1246H mutant (974 to end residues) assessed as residual activity at 10 uM using KKKGQEEEYVFIE as substrate incubated for 40 mins in presence of [gamma-33ATP by scintillation counting based radiometry assay relative to control
[16] = biological target: Serine/threonine-protein kinase 24 (Homo sapiens) (UniProt Q9Y6E0); assay: Inhibition of recombinant human MST3 (1 to 304 residues) assessed as residual activity at 10 uM using ERMRPRKRQGSVR as substrate measured after 40 mins in presence of [gamma33P]ATP by scintillation counting based radiometry assay relative to control
[17] = biological target: Serine/threonine-protein kinase NIM1 (Homo sapiens) (UniProt Q8IY84); assay: Inhibition of recombinant full length human NIM1 assessed as residual activity at 10 uM using KKKVSRSGLYRSPSMPENLNRPR as substrate measured after 40 mins in presence of [gamma33P]ATP by scintillation counting based radiometry assay relative to control
[18] = biological target: 3-phosphoinositide-dependent protein kinase 1 (Homo sapiens) (UniProt O15530); assay: Inhibition of recombinant human PDK1 (52 to end residues) assessed as residual activity at 10 uM using PDKtide as substrate incubated for 40 mins in presence of [gamma33P]ATP by scintillation counting based radiometry assay relative to control
Homo sapiens = organism: Homo sapiens; assay: Inhibition of recombinant full-length human ATR/ATRIP M211T mutant assessed as residual activity at 10 uM using GST-cMyc-p53 as substrate measured after 40 mins by fluorescence assay relative to control
[19] = biological target: Phosphatidylinositol 4-phosphate 3-kinase C2 domain-containing subunit alpha (Homo sapiens) (UniProt O00443); assay: Inhibition of recombinant human PI3KC2alpha (299 to end residues) assessed as residual activity at 10 uM using phosphatidylinositol as substrate incubated for 40 mins in presence of [gamma33P]ATP by scintillation counting based radiometry assay relative to control
[20] = biological target: Phosphatidylinositol 4-phosphate 5-kinase type-1 alpha (Homo sapiens) (UniProt Q99755); assay: Inhibition of recombinant full-length human PIP5K1alpha assessed as residual activity at 10 uM using phosphatidylinositol 5-phosphate as substrate by HTRF assay relative to control
Phosphatidylinositol 4-phosphate 5-kinase type-1 alpha (Homo sapiens), sequence (Q99755 whole entry): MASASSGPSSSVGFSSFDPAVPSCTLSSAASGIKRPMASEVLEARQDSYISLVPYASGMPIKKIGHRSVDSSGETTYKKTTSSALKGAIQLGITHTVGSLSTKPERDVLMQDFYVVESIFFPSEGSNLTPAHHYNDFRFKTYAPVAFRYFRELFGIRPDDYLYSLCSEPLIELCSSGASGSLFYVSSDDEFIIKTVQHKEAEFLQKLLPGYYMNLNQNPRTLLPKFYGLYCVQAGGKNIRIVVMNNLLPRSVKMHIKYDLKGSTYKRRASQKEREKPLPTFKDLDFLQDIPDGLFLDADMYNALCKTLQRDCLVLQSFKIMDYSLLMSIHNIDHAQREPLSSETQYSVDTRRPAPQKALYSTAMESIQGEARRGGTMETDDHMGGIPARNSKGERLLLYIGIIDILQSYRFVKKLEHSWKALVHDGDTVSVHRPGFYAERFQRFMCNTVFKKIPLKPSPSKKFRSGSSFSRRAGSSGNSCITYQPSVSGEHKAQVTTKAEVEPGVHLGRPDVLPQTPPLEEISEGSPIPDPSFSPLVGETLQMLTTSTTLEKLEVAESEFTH

C[C@@H](c1ccccc1)n1nnc2cnc3ccc(-c4cnc5[nH]ccc5c4)cc3c21
Activity [1]: 6% | Activity [2]: 45% | Activity [3]: 79% | Activity [4]: 72% | Activity [5]: 66% | Activity [6]: 109% | Activity [7]: 71% | Activity [8]: 68% | Activity [9]: 51% | Activity [10]: 93% | Activity [11]: 94% | Activity [12]: 64% | Activity [13]: 4% | Activity [14]: 39% | Activity [15]: 72% | Activity [16]: 90% | Activity [17]: 99% | Activity [18]: 80% | Activity (Homo sapiens): 40% | Activity [19]: -60 to 66% | Activity [20]: 73 to 83%
